Results on twelve compounds are retold here after ChEMBL document CHEMBL5634077, “Recent advances in 1,2,3- and 1,2,4-triazole hybrids as antimicrobials and their SAR: A critical review” (2023).

≈ marks a conversion by molar mass, not a printed value.

Format in all cases: functional
The subject of experiment [1] is Staphylococcus epidermidis. Put plainly: Antibacterial activity against Methicillin-sensitive Staphylococcus epidermidis assessed as bacterial growth inhibition.
Experiment [2] relates to Staphylococcus aureus. The experiment can be described thus: Antibacterial activity against Methicillin-sensitive Staphylococcus aureus assessed as bacterial growth inhibition.
In a further experiment the test system is Enterococcus faecium. Put plainly: Antibacterial activity against Enterococcus faecium assessed as inhibition of bacterial growth.
The subject of another experiment is Enterococcus faecalis. Put plainly: Antibacterial activity against Enterococcus faecalis assessed as bacterial growth inhibition.
For experiment [3], the system named is Staphylococcus aureus. The experiment can be described thus: Antibacterial activity against Methicillin-resistant Staphylococcus aureus assessed as bacterial growth inhibition.
Experiment [4] concerns Staphylococcus epidermidis. The experiment can be described thus: Antibacterial activity against Methicillin-resistant Staphylococcus epidermidis assessed as bacterial growth inhibition.
The subject of the next experiment is Escherichia coli. Put plainly: Antibacterial activity against Escherichia coli MTCC 16521 assessed as reduction in microbial growth.
In the next experiment the test system is Candida albicans. The experiment can be described thus: Antifungal activity against Candida albicans MTCC 227 assessed as inhibition of fungal growth.
The next experiment relates to Bacillus subtilis. The experiment can be described thus: Antibacterial activity against Bacillus subtilis MTCC 441 assessed as reduction in microbial growth.
In experiment [5] the test system is Staphylococcus epidermidis. The experiment can be described thus: Antibacterial activity against Staphylococcus epidermidis assessed as reduction in microbial growth.
The subject of the next experiment is Aspergillus niger. The experiment can be described thus: Antifungal activity against Aspergillus niger MTCC 8189 assessed as inhibition of fungal growth.

Usually MIC stands for the lowest concentration found to suppress growth. With `CO/N=C1/C(=O)N(Cc2cn(CC(=O)N3CCC[C@@H]4CN(c5c(F)cc6c(=O)c(C(=O)O)cn(C7CC7)c6c5OC)C[C@@H]43)nn2)c2ccccc21`, the MIC (in [1]; in the experiment with Staphylococcus aureus [2]; in the experiment on Enterococcus faecium; in the experiment on Enterococcus faecalis; in the experiment with Staphylococcus aureus [3]; in experiment [4]) was 0.06 µg/mL (≈ 0.0859 µM) in each case.
Consider `COc1c(N2C[C@H]3CCCN(C(=O)Cn4cc(CN5C(=O)C(=O)c6ccccc65)nn4)[C@H]3C2)c(F)cc2c(=O)c(C(=O)O)cn(C3CC3)c12`, for which the minimal inhibitory concentration (MIC) (in experiment [1]; with Staphylococcus aureus [2]; with Enterococcus faecium; in the experiment on Enterococcus faecalis; with Staphylococcus aureus [3]; in experiment [4]) was 0.06 µg/mL (≈ 0.0896 µM) in each case.
Regarding `COc1c(N2C[C@H]3CCCN(C(=O)Cn4cc(CN5C(=O)C(=O)c6c(F)cccc65)nn4)[C@H]3C2)c(F)cc2c(=O)c(C(=O)O)cn(C3CC3)c12`, the MIC (in [1]; with Staphylococcus aureus [2]; in the experiment on Enterococcus faecium; in the experiment on Enterococcus faecalis; with Staphylococcus aureus [3]; in experiment [4]) was 0.06 µg/mL (≈ 0.0873 µM) each time.
Regarding `COc1ccc(NC(=O)NCc2cn(CCCCCCn3cc(CNC(=O)Nc4ccc(OC)cc4)nn3)nn2)cc1`, the MIC in the experiment on Escherichia coli stood at 6 µM; in the experiment with Candida albicans, 6 µM (≈ 3.46 µg/mL); with Bacillus subtilis, 6 µM; in experiment [5] it was 6 µM; in the experiment with Aspergillus niger, 6 µM (≈ 3.46 µg/mL).
Take `COc1c(N2C[C@H]3CCCN(C(=O)Cn4cc(CN5C(=O)C(=O)c6ccc(F)cc65)nn4)[C@H]3C2)c(F)cc2c(=O)c(C(=O)O)cn(C3CC3)c12`: the minimal inhibitory concentration (MIC) (in experiment [1]; in the experiment on Staphylococcus aureus [2]; with Enterococcus faecium; in the experiment on Enterococcus faecalis; in the experiment on Staphylococcus aureus [3]; in [4]) was 0.06 µg/mL (≈ 0.0873 µM) throughout.
As to `CO/N=C1/C(=O)N(Cc2cn(CC(=O)N3CCC[C@@H]4CN(c5c(F)cc6c(=O)c(C(=O)O)cn(C7CC7)c6c5OC)C[C@@H]43)nn2)c2cc(F)ccc21`, the minimum inhibitory concentration (MIC) (in experiment [1]; in the experiment on Staphylococcus aureus [2]; in the experiment with Enterococcus faecium; in the experiment on Enterococcus faecalis; in the experiment on Staphylococcus aureus [3]; in experiment [4]) was 0.06 µg/mL (≈ 0.0837 µM) throughout.
As for `COc1ccc(NC(=O)NCc2cn(Cc3cccc(Cn4cc(CNC(=O)Nc5ccc(OC)cc5)nn4)c3)nn2)cc1`, the MIC in the experiment with Escherichia coli turned out to be 6 µM; with Candida albicans, 6 µM (≈ 3.58 µg/mL); in the experiment on Bacillus subtilis it was 6 µM; in [5], 6 µM; in the experiment with Aspergillus niger, 6 µM (≈ 3.58 µg/mL).
In the case of `O=C(NCc1cn(CCCCCCn2cc(CNC(=O)Nc3ccc(Cl)cc3)nn2)nn1)Nc1ccc(Cl)cc1`, the MIC turned out to be 6 µM in the experiment with Escherichia coli; 6 µM (≈ 3.51 µg/mL) with Candida albicans; 6 µM with Bacillus subtilis; 6 µM in experiment [5]; 6 µM (≈ 3.51 µg/mL) in the experiment on Aspergillus niger.
`O=C(NCc1cn(Cc2cccc(Cn3cc(CNC(=O)Nc4ccc(Cl)cc4)nn3)c2)nn1)Nc1ccc(Cl)cc1`: the minimal inhibitory concentration (MIC) was found to be 6 µM in the experiment with Escherichia coli; 6 µM (≈ 3.63 µg/mL) in the experiment with Candida albicans; 6 µM with Bacillus subtilis; 6 µM in [5]; 6 µM (≈ 3.63 µg/mL) in the experiment on Aspergillus niger.
Regarding `O=C(NCc1cn(CCCCCCn2cc(CNC(=O)Nc3ccc(F)cc3)nn2)nn1)Nc1ccc(F)cc1`, the minimal inhibitory concentration (MIC) in the experiment with Escherichia coli was found to be 6 µM; in the experiment with Candida albicans, 6 µM (≈ 3.32 µg/mL); in the experiment with Bacillus subtilis it was 6 µM; in [5], 6 µM; with Aspergillus niger it was 6 µM (≈ 3.32 µg/mL).
Turning to `COc1c(N2C[C@H]3CCCN(C(=O)Cn4cc(CN5C(=O)C(=O)c6ccc(C)cc65)nn4)[C@H]3C2)c(F)cc2c(=O)c(C(=O)O)cn(C3CC3)c12`, the MIC (in [1]; with Staphylococcus aureus [2]; in the experiment on Enterococcus faecium; in the experiment on Enterococcus faecalis; in the experiment with Staphylococcus aureus [3]; in experiment [4]) was 0.06 µg/mL (≈ 0.0878 µM) throughout.
With `O=C(NCc1cn(Cc2cccc(Cn3cc(CNC(=O)Nc4ccc(F)cc4)nn3)c2)nn1)Nc1ccc(F)cc1`, the minimum inhibitory concentration (MIC) in the experiment on Escherichia coli stood at 6 µM; in the experiment on Candida albicans, 6 µM (≈ 3.44 µg/mL); with Bacillus subtilis, 6 µM; in [5], 6 µM; in the experiment on Aspergillus niger it was 6 µM (≈ 3.44 µg/mL).
